Experimental data reported in patent US4119722A, “Method for control of fungi using 4-halo-5-aryl-1,2,3,-dithiazoles” (Chevron Research Company, priority 1977, dated 1978).

How the values were obtained:
Phytophthora infestans = experiment: whole plant or invertebrate; assay type: in vivo; conditions: in Solanum lycopersicum, 168 h, read-out: Tomato Late Blight, % Control
Septoria apii = assay type: in vivo; conditions: sprayed celery plants; concentration not given
Fusarium moniloforma = experiment: Mycelia Inhibition; assay type: cell-based; conditions: 25° C., 24 hours
Method: (§1) The compounds of the present invention were evaluated for fungicidal effectiveness by means of a mycelial inhibition test. This test is designed to measure the fungitoxic acitvity of fungicidal chemicals in terms of their degree of inhibition of mycelium growth. Each compound to be tested was dissolved in acetone to 500 ppm concentration. Paper strips were innoculated with the particular mycelium growth by covering the paper with a potato dextrose broth culture of mycelial suspension. The innoculated papers were then placed on potato dextrose agar plates and sprayed by means of a micro sprayer with the fungicidal solution. The treated paper strips were incubated at 25° C. and data is taken after 24 hours. Fungicidal activities are measured by a zone of inhibited mycelial growth from the center of the paper strip. The effectiveness of the compounds tested for fungicidal activity is reported in Table VI in terms of the microgram/cm^2 for 99% control of the fungus.

Rhizoctonia solani = experiment: Mycelia Inhibition; assay type: cell-based; conditions: 25° C., 24 hours
Method: as §1

Aspergillus niger = experiment: Mycelia Inhibition; assay type: cell-based; conditions: 25° C., 24 hours
Method: as §1

[1] = tested on: Watergrass (Echinochloa Crusgalli); experiment: Post-emergent herbicidal test; assay type: in vivo; conditions: Echinochloa crus-galli, post-emergence, 504 h, 33 mcg/cm^2, 3 weeks, scale 0 (no phytotoxicity) to 100 (complete kill), read-out: Herbicidal Effectiveness (W)
Method: (§2) Post-emergent herbicidal tests with representative compounds of this invention were made using the following method.
(§3) An acetone solution of the test compound was prepared by mixing 750 mg of the compound, 220 mg of a nonionic surfactant and 25 ml of acetone. This solution was added to approximately 125 ml of water containing 156 mg of surfactant.
(§4) This test solution was uniformly sprayed on 2 similar pots of 24-day-old plants (approximately 15 to 25 plants per pot) at a dose of 33 mcg/cm^2. After the plants had dried, they were placed in a greenhouse and then watered intermittently at their bases, as needed. The plants were observed periodically for phytotoxic effects and physiological and morphological responses to the treatment. After 3 weeks, the herbicidal effectiveness of the compound was rated based on these observations. A 0-to-100 scale was used, 0 representing no phytotoxicity and 100 representing complete kill.

Wild Oats (Avena fatua) = experiment: Post-emergent herbicidal test; assay type: in vivo; conditions: post-emergence, 504 h, 33 mcg/cm^2, 3 weeks, scale 0 (no phytotoxicity) to 100 (complete kill), read-out: Herbicidal Effectiveness (O)
Method: as §2, §3, §4

[2] = tested on: Crabgrass (Digitaria sanguinalis); experiment: Post-emergent herbicidal test; assay type: in vivo; conditions: post-emergence, 504 h, 33 mcg/cm^2, 3 weeks, scale 0 (no phytotoxicity) to 100 (complete kill), read-out: Herbicidal Effectiveness (C)
Method: as §2, §3, §4

[3] = tested on: Mustard (Brassica arvensis); experiment: Post-emergent herbicidal test; assay type: in vivo; conditions: post-emergence, 504 h, 33 mcg/cm^2, 3 weeks, scale 0 (no phytotoxicity) to 100 (complete kill), read-out: Herbicidal Effectiveness (L)
Method: as §2, §3, §4

[4] = tested on: Pigweed (Amaranthus retroflexus); experiment: Post-emergent herbicidal test; assay type: in vivo; conditions: post-emergence, 504 h, 33 mcg/cm^2, 3 weeks, scale 0 (no phytotoxicity) to 100 (complete kill), read-out: Herbicidal Effectiveness
Method: as §2, §3, §4

[5] = tested on: Lambsquarter (Chenopodium album); experiment: Post-emergent herbicidal test; assay type: in vivo; conditions: post-emergence, 504 h, 33 mcg/cm^2, 3 weeks, scale 0 (no phytotoxicity) to 100 (complete kill), read-out: Herbicidal Effectiveness (P)
Method: as §2, §3, §4

Alternaria solani = experiment: Tomato Early Blight control; assay type: in vivo; conditions: 250-ppm spray, tomato seedlings, inoculated 1 day later
Method: Compounds of the invention were tested for the control of the Tomato Early Blight organism, Alternaria solani conidia. […] The tomato plans were sprayed with a 250-ppm solution of the test compound in an acetone-and-water solution containing a small amount of a non-ionic emulsifier. […] Percent disease control was based on the percent disease development on untreated check plants.

[6] = tested on: two spotted-mites (Tetramuchus urticae); experiment: Mite control test, adult mites; assay type: in vivo; conditions: 40-ppm leaf dip, adult mortality one day after treatment; 1440 min
Method: (§5) Compounds of the invention were tested for the control mites and mite eggs by the following procedure. Pinto bean leaves were invested with two spotted-mites (Tetramuchus urticae). The mites were then allowed to lay eggs on the leaves. After 48 hours, the leaves were dipped into a water/acetone solution containing a small amount of a non-ionic surfactant and 40-ppm of the test compound. The treated leaves were then maintained at 85° F. One day after treatment, the mortality of adult mites was determined, and 7 days after treatment, the egg mortality (non-hatching eggs) was determined.

[7] = tested on: mite eggs (Tetramuchus urticae); experiment: Mite control test, mite eggs; assay type: in vivo; conditions: 40-ppm leaf dip, egg mortality (non-hatching eggs) 7 days after treatment
Method: as §5

Erysiphe polygoni = experiment: Powdery Mildew control on bean seedlings; assay type: in vivo; conditions: 250-ppm spray, about 10 days
Excerpt: The powdery mildew test was made using bean seedlings (var. Bountiful) with well-developed primary leaves. The pathogen was Erysiphe polygoni. The bean seedlings were sprayed with a 250-ppm solution of the test compound in an acetone-water mixture containing a nonionic emulsifer. The treated plants were inoculated one day after spray application of the test compound with the pathogen. […] The rate of infection on the leaves was made after about 10 days. The percent disease control provided by a given test compound was based on the disease reduction relative to untreated check plants.

Botrytis cinerea = experiment: Mycelia Inhibition; assay type: cell-based; conditions: 25° C., 24 hours
Method: as §1

O=[N+]([O-])c1ccc(Oc2ccccc2N=c2ssnc2Cl)cc1 [Compound 20]
pest or weed control at 250 µg/mL (Phytophthora infestans): 80% | Celery Late Blight, % Control (Septoria apii): 62% | Mycelia Inhibition, for 99% control (F) (Fusarium moniloforma): > 1.7 micrograms/cm^2 | Mycelia Inhibition, for 99% control (R) (Rhizoctonia solani): 1.3 micrograms/cm^2 | Mycelia Inhibition, for 99% control (A) (Aspergillus niger): > 1.7 micrograms/cm^2

Fc1ccccc1N=c1ssnc1Cl [Compound 22]
Celery Late Blight, % Control (Septoria apii): 80% | Mycelia Inhibition, for 99% control (F) (Fusarium moniloforma): 1.3 micrograms/cm^2 | Mycelia Inhibition, for 99% control (R) (Rhizoctonia solani): 0.73 micrograms/cm^2 | Mycelia Inhibition, for 99% control (A) (Aspergillus niger): 1.4 micrograms/cm^2 | pest or weed control at 33 µg/cm2 [1]: 20% | pest or weed control at 33 µg/cm2 (Wild Oats (Avena fatua)): 0% | pest or weed control at 33 µg/cm2 [2]: 0% | pest or weed control at 33 µg/cm2 [3]: 85% | pest or weed control at 33 µg/cm2 [4]: 70% | pest or weed control at 33 µg/cm2 [5]: 70% | Tomato Early Blight, % Control (Alternaria solani): 50% | Mite Control, % [6]: 0% | Mite Eggs Control, % [7]: 39%

N#Cc1cc(C(F)(F)F)ccc1Oc1cccc(N=c2ssnc2Cl)c1 [Compound 30]
Celery Late Blight, % Control (Septoria apii): 80%

Clc1cc(Cl)cc(N=c2ssnc2Cl)c1 [Compound 3]
Mycelia Inhibition, for 99% control (F) (Fusarium moniloforma): > 1.7 micrograms/cm^2 | Mycelia Inhibition, for 99% control (R) (Rhizoctonia solani): 0.98 micrograms/cm^2 | Mycelia Inhibition, for 99% control (A) (Aspergillus niger): > 1.7 micrograms/cm^2 | pest or weed control at 33 µg/cm2 [1]: 85% | pest or weed control at 33 µg/cm2 (Wild Oats (Avena fatua)): 35% | pest or weed control at 33 µg/cm2 [2]: 55% | pest or weed control at 33 µg/cm2 [3]: 100% | pest or weed control at 33 µg/cm2 [4]: 100% | pest or weed control at 33 µg/cm2 [5]: 100% | Powdery Mildew % Control (Erysiphe polygoni): 76% | Mite Control, % [6]: 90% | Mite Eggs Control, % [7]: 85%

Clc1ccc(N=c2ssnc2Cl)c(Cl)c1 [Compound 6]
pest or weed control at 33 µg/cm2 [1]: 55% | pest or weed control at 33 µg/cm2 (Wild Oats (Avena fatua)): 30% | pest or weed control at 33 µg/cm2 [2]: 35% | pest or weed control at 33 µg/cm2 [3]: 100% | pest or weed control at 33 µg/cm2 [4]: 100% | pest or weed control at 33 µg/cm2 [5]: 95% | Tomato Early Blight, % Control (Alternaria solani): 56% | Mite Control, % [6]: 100% | Mite Eggs Control, % [7]: 0%

O=[N+]([O-])c1ccc(Oc2ccc(N=c3ssnc3Cl)cc2)cc1 [Compound 19]
pest or weed control at 250 µg/mL (Phytophthora infestans): 51% | Celery Late Blight, % Control (Septoria apii): 62% | Mycelia Inhibition, for 99% control (F) (Fusarium moniloforma): > 1.7 micrograms/cm^2 | Mycelia Inhibition, for 99% control (R) (Rhizoctonia solani): 0.88 micrograms/cm^2 | Mycelia Inhibition, for 99% control (A) (Aspergillus niger): > 1.7 micrograms/cm^2 | Mite Control, % [6]: 0% | Mite Eggs Control, % [7]: 78%

O=[N+]([O-])c1ccc(Oc2cccc(N=c3ssnc3Cl)c2)cc1 [Compound 18]
Celery Late Blight, % Control (Septoria apii): 64% | Mycelia Inhibition, for 99% control (F) (Fusarium moniloforma): > 1.7 micrograms/cm^2 | Mycelia Inhibition, for 99% control (B) (Botrytis cinerea): > 1.7 micrograms/cm^2 | Mycelia Inhibition, for 99% control (R) (Rhizoctonia solani): 0.45 micrograms/cm^2 | Mycelia Inhibition, for 99% control (A) (Aspergillus niger): > 1.7 micrograms/cm^2 | Tomato Early Blight, % Control (Alternaria solani): 44%

N#Cc1ccc(N=c2ssnc2Cl)cc1 [Compound 23]
pest or weed control at 250 µg/mL (Phytophthora infestans): 97% | Celery Late Blight, % Control (Septoria apii): 63% | Mycelia Inhibition, for 99% control (F) (Fusarium moniloforma): 1.4 micrograms/cm^2 | Mycelia Inhibition, for 99% control (B) (Botrytis cinerea): 0.78 micrograms/cm^2 | Mycelia Inhibition, for 99% control (R) (Rhizoctonia solani): 0.6 micrograms/cm^2 | Mycelia Inhibition, for 99% control (A) (Aspergillus niger): > 1.7 micrograms/cm^2 | Tomato Early Blight, % Control (Alternaria solani): 90%

O=[N+]([O-])c1ccc(Oc2cccc(N=c3ssnc3Cl)c2)c(C(F)(F)F)c1 [Compound 17]
pest or weed control at 250 µg/mL (Phytophthora infestans): 62% | Celery Late Blight, % Control (Septoria apii): 56%

N#Cc1ccccc1N=c1ssnc1Cl [Compound 29]
Celery Late Blight, % Control (Septoria apii): 44%

O=[N+]([O-])c1cccc(N=c2ssnc2Cl)c1 [Compound 8]
pest or weed control at 250 µg/mL (Phytophthora infestans): 44% | Mycelia Inhibition, for 99% control (F) (Fusarium moniloforma): > 1.7 micrograms/cm^2 | Mycelia Inhibition, for 99% control (B) (Botrytis cinerea): 1.3 micrograms/cm^2 | Mycelia Inhibition, for 99% control (R) (Rhizoctonia solani): > 1.7 micrograms/cm^2 | Mycelia Inhibition, for 99% control (A) (Aspergillus niger): > 1.7 micrograms/cm^2 | pest or weed control at 33 µg/cm2 [1]: 0% | pest or weed control at 33 µg/cm2 (Wild Oats (Avena fatua)): 0% | pest or weed control at 33 µg/cm2 [2]: 0% | pest or weed control at 33 µg/cm2 [3]: 35% | pest or weed control at 33 µg/cm2 [4]: 30% | pest or weed control at 33 µg/cm2 [5]: 40%

Cc1ccc(Cl)cc1N=c1ssnc1Cl [Compound 28]
pest or weed control at 33 µg/cm2 [1]: 65% | pest or weed control at 33 µg/cm2 (Wild Oats (Avena fatua)): 45% | pest or weed control at 33 µg/cm2 [2]: 20% | pest or weed control at 33 µg/cm2 [3]: 100% | pest or weed control at 33 µg/cm2 [4]: 100% | pest or weed control at 33 µg/cm2 [5]: 95% | Powdery Mildew % Control (Erysiphe polygoni): 90% | Mite Control, % [6]: 85% | Mite Eggs Control, % [7]: 85%

Cc1ccc(N=c2ssnc2Cl)c(C)c1 [Compound 13]
pest or weed control at 250 µg/mL (Phytophthora infestans): 63% | Mycelia Inhibition, for 99% control (F) (Fusarium moniloforma): > 1.7 micrograms/cm^2 | Mycelia Inhibition, for 99% control (B) (Botrytis cinerea): > 1.7 micrograms/cm^2 | Mycelia Inhibition, for 99% control (R) (Rhizoctonia solani): > 1.7 micrograms/cm^2 | Mycelia Inhibition, for 99% control (A) (Aspergillus niger): 1.1 micrograms/cm^2 | pest or weed control at 33 µg/cm2 [1]: 0% | pest or weed control at 33 µg/cm2 (Wild Oats (Avena fatua)): 0% | pest or weed control at 33 µg/cm2 [2]: 0% | pest or weed control at 33 µg/cm2 [3]: 50% | pest or weed control at 33 µg/cm2 [4]: 35% | pest or weed control at 33 µg/cm2 [5]: 35% | Tomato Early Blight, % Control (Alternaria solani): 44% | Mite Control, % [6]: 0% | Mite Eggs Control, % [7]: 30%
